Test results: PMC3050082 (Journal of medicinal chemistry, 2010)
Like-named read-outs stand apart in the source and are kept apart here.

How the values were obtained:
HIV-1 RTMDR = experiment: Multi-RTI-resistant HIV-1 RTMDR infection in TZM-bl cell line; format: cell-based; settings: Human immunodeficiency virus 1, TZM-bl
HIV-1 NL4-3 [1] = settings: NL4-3 in TZM-bl cell line; starred compounds, data were reported in ref [11]; cited from earlier work
TZM-bl cell line = settings: cited from earlier work
HIV-1 IIIB [2] = settings: cited from earlier work
MT-2 cells = settings: cited from earlier work
HIV-1 IIIB [3] = experiment: Inhibition of HIV-1 IIIB replication in MT-2 cells; format: cell-based; settings: Human immunodeficiency virus 1, IIIB
HIV-1 NL4-3 [4] = experiment: in vitro; format: cell-based; settings: for EC50: Human immunodeficiency virus 1, NL43, TZM-bl
HIV-1 A17 (K103N/Y181C) = experiment: Multi-RTI-resistant HIV-1 A17 replication in MT-2 cells; format: cell-based; settings: Human immunodeficiency virus 1, MT2
[5] = TZM-bl cell line, XTT assay, starred compounds, data were reported in ref [11]
[6] = IIIB in MT-2 cell line, starred compounds, data were reported in ref [11]
[7] = MT-2 cell line, XTT assay, starred compounds, data were reported in ref [11]

In the case of `Cc1cc(I)cc(C)c1Oc1ccc([N+](=O)[O-])c(Nc2ccc(C#N)cc2)n1` [11a, N^2-(4′-Cyanophenyl)-6-(2″,6″-dimethyl-4″-iodo)phenoxy-3-nitropyridin-2-amine], the EC50 (HIV-1 RTMDR) is given as 94.3 ± 9 nM, the EC50 (HIV-1 NL4-3 [1]) is given as 60.7 ± 24 nM and the “SI (selective index = CC50/EC50)” value (HIV-1 NL4-3 [1]) is given as greater than 675. The CC50 (TZM-bl cell line; [5]) was greater than 41200 nM, the EC50 (HIV-1 IIIB [2]; [6]) was 79 ± 2 nM and the “SI (selective index = CC50/EC50)” value (HIV-1 IIIB [2]; [6]) was 283. For the same molecule, the CC50 (MT-2 cells; [7]) was 22900 nM.
For `Cc1cc(C#CC(C)(C)O)cc(C)c1Oc1ccc([N+](=O)[O-])c(Nc2ccc(C#N)cc2)n1` [11d, N-(4′-Cyanophenyl)-6-[2″,6″-dimethyl-4″-(3-methylbut-3-ol-1-yn)phenoxy]-3-nitropyridin-2-amine], the “SI (selective index = CC50/EC50)” value (HIV-1 NL4-3 [1]) is listed as 1.09, the CC50 (TZM-bl cell line) is listed as 45200 nM and the “SI (selective index = CC50/EC50)” value (HIV-1 IIIB [2]) is listed as 2.61. The CC50 (MT-2 cells) was 23300 nM.
Work on `Cc1cc(C#CC2CC2)cc(C)c1Oc1ccc([N+](=O)[O-])c(Nc2ccc(C#N)cc2)n1` [11e, N-(4′-Cyanophenyl)-6-[4″-(2-cyclopropylethynyl)-2″,6″-dimethyl]phenoxy-3-nitro-pyridin-2-amine] yielded an EC50 (HIV-1 IIIB [3]; MT2, IIIB in MT-2 cell line) greater than 3000 nM.
For `C#Cc1cc(C)c(Oc2ccc([N+](=O)[O-])c(Nc3ccc(C#N)cc3)n2)c(C)c1` [11f, N^2-(4′-Cyanophenyl)-6-(2″,6″-dimethyl-4″-ethynyl)phenoxy-3-nitropyridin-2-amine], the EC50 (HIV-1 RTMDR) is given as 215 ± 33 nM, the EC50 (HIV-1 NL4-3 [1]) is given as 111 ± 86 nM and the “SI (selective index = CC50/EC50)” value (HIV-1 NL4-3 [1]) is given as greater than 469. For the same molecule, the CC50 (TZM-bl cell line; [5]) was greater than 52100 nM, the EC50 (HIV-1 IIIB [2]; [6]) was 247 ± 40 nM and the “SI (selective index = CC50/EC50)” value (HIV-1 IIIB [2]; [6]) was greater than 405. The CC50 (MT-2 cells; [7]) was greater than 100000 nM.
`Cc1cc(/C=C/C#N)cc(C)c1Oc1ccc([N+](=O)[O-])c(Nc2ccc(C#N)cc2)n1` [11m, (E)-N-(4′-Cyanophenyl)-6-(4″-cyanovinyl-2″,6″-dimethyl)phenoxy-3-nitropyridin-2-amine] gave an EC50 (HIV-1 RTMDR) of 14.8 ± 2.4 nM.
In the case of `Cc1cc(/C=C/C#N)cc(C)c1Oc1ccc([N+](=O)[O-])c(Nc2ccc(C#N)cc2)c1` [12c, (E)-N^2-(4′-Cyanophenyl)-4-(4″-cyanovinyl-2″,6″-dimethyl)phenoxy-1-nitroaniline], the selectivity ratio (HIV-1 NL4-3 [4]; human) is reported as greater than 4690.
For `Cc1cc(I)cc(C)c1Oc1ccc(N)c(Nc2ccc(C#N)cc2)n1` [13a, N^2-(4′-Cyanophenyl)-6-(2″,6″-dimethyl-4″-iodo)phenoxypyridin-2,3-diamine], the EC50 (HIV-1 RTMDR) is listed as 5.13 ± 1.15 nM, the EC50 (HIV-1 NL4-3 [1]) is listed as 7.6 ± 2.3 nM and the “SI (selective index = CC50/EC50)” value (HIV-1 NL4-3 [1]) is listed as 2200. The CC50 (TZM-bl cell line; [5]) was 16700 nM, the EC50 (HIV-1 IIIB [2]; [6]) was 54 ± 4 nM and the “SI (selective index = CC50/EC50)” value (HIV-1 IIIB [2]; [6]) was 134. The CC50 (MT-2 cells; [7]) was 7240 nM.
`C=CCc1cc(C)c(Oc2ccc(N)c(Nc3ccc(C#N)cc3)n2)c(C)c1` [13c, 6-(4″-Allyl-2″,6″-dimethyl)phenoxy-N^2-(4′-cyanophenyl)pyridin-2,3-diamine] gave an EC50 (HIV-1 RTMDR) of 15.4 ± 1.6 nM.
For `Cc1cc(C#CC(C)(C)O)cc(C)c1Oc1ccc(N)c(Nc2ccc(C#N)cc2)n1` [13d, N^2-(4′-Cyanophenyl)-6-[2″,6″-dimethyl-4″-(3-methylbut-3-ol-1-yn)phenoxy]pyridin-2,3-di amine], the EC50 (HIV-1 NL4-3 [1]) is listed as 241 ± 14.7 nM, the “SI (selective index = CC50/EC50)” value (HIV-1 NL4-3 [1]) is listed as 36 and the CC50 (TZM-bl cell line) is listed as 8730 nM. The EC50 (HIV-1 IIIB [2]; [6]) was 1580 ± 97 nM, the “SI (selective index = CC50/EC50)” value (HIV-1 IIIB [2]) was 2.25 and the CC50 (MT-2 cells) was 3540 nM.
For `Cc1cc(C#CC2CC2)cc(C)c1Oc1ccc(N)c(Nc2ccc(C#N)cc2)n1` [13e, N^2-(4′-Cyanophenyl)-6-[4″-(2-cyclopropylethynyl)-2″,6″-dimethylphenoxy]pyridin-2,3-diamine], the EC50 (HIV-1 RTMDR) was 121 ± 17.7 nM and the EC50 (HIV-1 A17 (K103N/Y181C)) was greater than 10000 nM.
For `C#Cc1cc(C)c(Oc2ccc(N)c(Nc3ccc(C#N)cc3)n2)c(C)c1` [13f, N^2-(4′-Cyanophenyl)-6-(2″,6″-dimethyl-4″-ethynyl)phenoxypyridin-2,3-diamine], the EC50 (HIV-1 RTMDR) is given as 9 ± 2 nM, the EC50 (HIV-1 A17 (K103N/Y181C)) is given as 1430 ± 260 nM and the EC50 (HIV-1 NL4-3 [1]) is given as 6.7 ± 1 nM. For the same molecule, the “SI (selective index = CC50/EC50)” value (HIV-1 NL4-3 [1]) was 1484, the CC50 (TZM-bl cell line; [5]) was 9940 nM and the “SI (selective index = CC50/EC50)” value (HIV-1 IIIB [2]; [6]) was 221. For the same molecule, the CC50 (MT-2 cells; [7]) was 9280 nM.
For `CC(=O)CCc1cc(C)c(Oc2ccc(N)c(Nc3ccc(C#N)cc3)n2)c(C)c1` [13k, 6-[(4″-Butan-2-one)-2″,6″-dimethyl]phenoxy-N^2-(4′-cyanophenyl)pyridin-2,3-diamine], the EC50 (HIV-1 RTMDR) was 3.2 ± 0.8 nM and the EC50 (HIV-1 A17 (K103N/Y181C)) was 730 ± 58 nM.
`Cc1cc(/C=C/C#N)cc(C)c1Oc1ccc(N)c(Nc2ccc(C#N)cc2)n1` [13m, (E)-N^2-(4′-Cyanophenyl)-6-(4″-cyanovinyl-2″,6″-dimethyl)phenoxypyridin-2,3-diamine] showed an EC50 (HIV-1 RTMDR) of 0.59 ± 0.09 nM and an EC50 (HIV-1 A17 (K103N/Y181C)) of 200 ± 10 nM.
Molecule `Cc1cc(C#N)cc(C)c1Oc1ccc(N)c(Nc2ccc(C#N)cc2)n1` [compound 3, reference compound] has an EC50 (HIV-1 NL4-3 [4]; NL4-3 in TZM-bl cell line) of 0.68 ± 0.03 nM and an EC50 (HIV-1 RTMDR) of 0.96 ± 0.3 nM.
Work on `N#Cc1ccc(Nc2cc(Oc3ccc4cc(C#N)ccc4c3)c([N+](=O)[O-])cc2[N+](=O)[O-])cc1` [compound 17, 5-(6-Cyano-2-naphthoxy)-N^1-(4′-cyanophenyl)-2,4-dinitroaniline] yielded an EC50 (HIV-1 NL4-3 [4]) greater than 100 nM and an EC50 (HIV-1 IIIB [3]; MT2) greater than 100 nM.
`N#Cc1ccc(Nc2cc(Oc3ccc4cc(C#N)ccc4c3)c([N+](=O)[O-])cc2N)cc1` [compound 19, 4-(6-Cyano-2-naphthoxy)-N^2-(4′-cyanophenyl)-5-nitrobenzene-1,2-diamine] showed an EC50 (HIV-1 NL4-3 [4]; NL4-3 in TZM-bl cell line) greater than 100 nM and an EC50 (HIV-1 IIIB [3]; MT2, IIIB in MT-2 cell line) greater than 100 nM.
With `N#Cc1ccc(Nc2cc([N+](=O)[O-])c(Oc3ccc4cc(C#N)ccc4c3Br)cc2N)cc1` [compound 20, 4-(1-Bromo-6-cyano-2-naphthoxy)-N^1-(4′-cyanophenyl)-5-nitrobenzene-1,2-diamine] the EC50 (HIV-1 NL4-3 [4]; NL4-3 in TZM-bl cell line) was greater than 100 nM and the EC50 (HIV-1 IIIB [3]; MT2, IIIB in MT-2 cell line) was greater than 100 nM.
